Test results as given in ChEMBL document CHEMBL4507295 (2021).

Assays:
[1] = molecular target: D(2) dopamine receptor (Homo sapiens) (UniProt P14416); settings: Compound concentration 10.0 uM
[2] = molecular target: Tyrosine-protein kinase Blk (Homo sapiens) (UniProt P51451); settings: Compound concentration 1000.0 nM
Homo sapiens [3] = species: Homo sapiens; settings: Compound concentration 10.0 uM
[4] = molecular target: Somatostatin receptor type 4 (Homo sapiens) (UniProt P31391); experiment: Somatostatin sst4 Eurofins-Panlabs radioligand binding assay; design: ligand concentration 0.1 nM, non-specific ligand with concentration 1 µM Somatostatin-14, incubation time 45 min, incubation temperature 25 °C; settings: Compound concentration 10.0 uM
Sequence of Somatostatin receptor type 4 (Homo sapiens) (P31391 whole entry): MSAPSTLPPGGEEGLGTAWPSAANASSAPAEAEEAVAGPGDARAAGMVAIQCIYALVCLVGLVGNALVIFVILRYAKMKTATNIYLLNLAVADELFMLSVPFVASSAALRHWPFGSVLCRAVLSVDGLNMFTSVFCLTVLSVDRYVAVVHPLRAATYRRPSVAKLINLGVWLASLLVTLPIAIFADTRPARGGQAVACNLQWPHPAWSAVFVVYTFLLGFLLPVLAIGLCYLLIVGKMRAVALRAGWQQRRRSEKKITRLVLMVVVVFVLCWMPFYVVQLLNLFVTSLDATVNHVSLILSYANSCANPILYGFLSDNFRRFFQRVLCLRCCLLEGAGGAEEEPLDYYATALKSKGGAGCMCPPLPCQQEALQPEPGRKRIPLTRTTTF

Rattus norvegicus [5] = species: Rattus norvegicus; experiment: Potassium Channel [KA] Eurofins-Panlabs radioligand binding assay; design: ligand concentration 0.01 nM; settings: Compound concentration 10.0 uM
[6] = molecular target: Type-2 angiotensin II receptor (Homo sapiens) (UniProt P50052); experiment: Angiotensin AT2 Eurofins-Panlabs radioligand binding assay; format: protein assay; settings: Compound concentration 10.0 uM
Sequence of Type-2 angiotensin II receptor (Homo sapiens) (P50052 whole entry): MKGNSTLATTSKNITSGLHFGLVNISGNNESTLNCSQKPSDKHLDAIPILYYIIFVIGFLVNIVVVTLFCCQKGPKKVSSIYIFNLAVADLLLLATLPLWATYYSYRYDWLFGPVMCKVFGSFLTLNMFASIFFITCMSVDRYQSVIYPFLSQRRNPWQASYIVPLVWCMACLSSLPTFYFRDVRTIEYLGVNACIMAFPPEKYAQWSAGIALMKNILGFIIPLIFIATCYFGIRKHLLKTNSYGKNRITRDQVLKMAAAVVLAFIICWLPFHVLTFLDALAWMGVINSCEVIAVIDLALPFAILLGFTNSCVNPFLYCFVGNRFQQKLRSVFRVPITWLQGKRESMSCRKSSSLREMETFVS

[7] = molecular target: Somatostatin receptor type 2 (Homo sapiens) (UniProt P30874); experiment: Somatostatin sst2 Eurofins-Panlabs radioligand binding assay; design: ligand concentration 0.1 nM; settings: Compound concentration 10.0 uM
Sequence of Somatostatin receptor type 2 (Homo sapiens) (P30874 whole entry): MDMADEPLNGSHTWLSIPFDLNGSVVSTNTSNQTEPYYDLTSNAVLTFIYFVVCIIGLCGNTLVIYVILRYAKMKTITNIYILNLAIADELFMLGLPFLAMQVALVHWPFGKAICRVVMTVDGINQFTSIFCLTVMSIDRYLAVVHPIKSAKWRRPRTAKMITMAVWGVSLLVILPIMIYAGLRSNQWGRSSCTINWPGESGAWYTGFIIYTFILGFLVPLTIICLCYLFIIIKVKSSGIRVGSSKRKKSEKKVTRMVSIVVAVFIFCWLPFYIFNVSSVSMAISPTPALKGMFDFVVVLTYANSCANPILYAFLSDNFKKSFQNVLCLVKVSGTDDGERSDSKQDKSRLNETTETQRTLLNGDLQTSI

[8] = molecular target: Vasopressin V1a receptor (Homo sapiens) (UniProt P37288); experiment: Vasopressin V1A Eurofins-Panlabs radioligand binding assay; design: ligand concentration 0.01 nM; settings: Compound concentration 10.0 uM
Rattus norvegicus [9] = species: Rattus norvegicus; experiment: Adrenergic α2, Non-selective Eurofins-Panlabs radioligand binding assay; format: protein assay; settings: Compound concentration 10.0 uM
[10] = molecular target: D(1A) dopamine receptor (Homo sapiens) (UniProt P21728); settings: Compound concentration 10.0 uM
Sequence of D(1A) dopamine receptor (Homo sapiens) (P21728 whole entry): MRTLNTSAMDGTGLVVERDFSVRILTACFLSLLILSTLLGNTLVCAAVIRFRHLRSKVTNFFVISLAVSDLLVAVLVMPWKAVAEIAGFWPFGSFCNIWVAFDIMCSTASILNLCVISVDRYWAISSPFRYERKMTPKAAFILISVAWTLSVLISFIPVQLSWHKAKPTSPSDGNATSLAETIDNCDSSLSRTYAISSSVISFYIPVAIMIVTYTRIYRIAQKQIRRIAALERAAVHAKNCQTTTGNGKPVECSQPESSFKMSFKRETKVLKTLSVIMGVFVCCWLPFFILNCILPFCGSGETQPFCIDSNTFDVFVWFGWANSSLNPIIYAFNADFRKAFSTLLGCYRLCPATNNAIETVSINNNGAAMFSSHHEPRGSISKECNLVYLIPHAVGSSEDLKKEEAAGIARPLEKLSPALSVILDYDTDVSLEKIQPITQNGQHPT

[11] = molecular target: T1, Alpha-2B adrenergic receptor (Homo sapiens) (UniProt P18089); settings: Compound concentration 10.0 uM
T1 sequence (whole entry): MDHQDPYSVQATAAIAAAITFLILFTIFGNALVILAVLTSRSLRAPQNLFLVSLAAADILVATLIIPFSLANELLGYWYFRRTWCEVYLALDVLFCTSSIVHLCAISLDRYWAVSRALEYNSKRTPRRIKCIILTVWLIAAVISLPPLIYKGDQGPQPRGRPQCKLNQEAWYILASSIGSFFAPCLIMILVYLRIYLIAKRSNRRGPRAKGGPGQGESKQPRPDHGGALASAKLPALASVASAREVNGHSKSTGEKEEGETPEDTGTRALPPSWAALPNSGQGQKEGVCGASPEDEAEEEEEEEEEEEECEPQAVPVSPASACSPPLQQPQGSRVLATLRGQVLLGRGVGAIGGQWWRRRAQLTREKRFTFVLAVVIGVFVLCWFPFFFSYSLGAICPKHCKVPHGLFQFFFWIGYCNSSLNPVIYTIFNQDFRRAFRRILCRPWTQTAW

[12] = molecular target: B1 bradykinin receptor (Homo sapiens) (UniProt P46663); experiment: Bradykinin B1 Eurofins-Panlabs radioligand binding assay; settings: Compound concentration 10.0 uM
Sequence of B1 bradykinin receptor (Homo sapiens) (P46663 whole entry): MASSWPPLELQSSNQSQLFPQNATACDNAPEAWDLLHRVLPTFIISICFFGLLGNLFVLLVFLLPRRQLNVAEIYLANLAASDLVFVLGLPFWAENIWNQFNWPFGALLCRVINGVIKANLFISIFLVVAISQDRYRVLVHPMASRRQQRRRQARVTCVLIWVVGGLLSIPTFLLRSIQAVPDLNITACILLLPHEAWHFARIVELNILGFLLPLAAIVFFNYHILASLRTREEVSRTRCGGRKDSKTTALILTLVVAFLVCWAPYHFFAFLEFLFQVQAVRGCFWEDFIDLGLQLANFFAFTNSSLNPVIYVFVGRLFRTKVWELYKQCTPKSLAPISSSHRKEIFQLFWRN

[13] = molecular target: Adenosine Transporter (Cavia porcellus) (UniProt H0V4R7+H0UUG1+H0V3Z5); experiment: Inhibition of Transporter, Adenosine at compound concentration of 10.0 uM in the Eurofins-Panlabs radioligand binding assay (Eurofins_assay_202000); format: protein assay; design: ligand concentration 0.5 nM, non-specific ligand with concentration 5 uM Nitrobenzylthioinosine, incubation time 30 min, incubation temperature 25 C; settings: Compound concentration 10.0 uM
[14] = molecular target: Glucocorticoid receptor (Homo sapiens) (UniProt P04150); experiment: Glucocorticoid Eurofins-Panlabs radioligand binding assay; settings: Compound concentration 10.0 uM
Sequence of Glucocorticoid receptor (Homo sapiens) (P04150 whole entry): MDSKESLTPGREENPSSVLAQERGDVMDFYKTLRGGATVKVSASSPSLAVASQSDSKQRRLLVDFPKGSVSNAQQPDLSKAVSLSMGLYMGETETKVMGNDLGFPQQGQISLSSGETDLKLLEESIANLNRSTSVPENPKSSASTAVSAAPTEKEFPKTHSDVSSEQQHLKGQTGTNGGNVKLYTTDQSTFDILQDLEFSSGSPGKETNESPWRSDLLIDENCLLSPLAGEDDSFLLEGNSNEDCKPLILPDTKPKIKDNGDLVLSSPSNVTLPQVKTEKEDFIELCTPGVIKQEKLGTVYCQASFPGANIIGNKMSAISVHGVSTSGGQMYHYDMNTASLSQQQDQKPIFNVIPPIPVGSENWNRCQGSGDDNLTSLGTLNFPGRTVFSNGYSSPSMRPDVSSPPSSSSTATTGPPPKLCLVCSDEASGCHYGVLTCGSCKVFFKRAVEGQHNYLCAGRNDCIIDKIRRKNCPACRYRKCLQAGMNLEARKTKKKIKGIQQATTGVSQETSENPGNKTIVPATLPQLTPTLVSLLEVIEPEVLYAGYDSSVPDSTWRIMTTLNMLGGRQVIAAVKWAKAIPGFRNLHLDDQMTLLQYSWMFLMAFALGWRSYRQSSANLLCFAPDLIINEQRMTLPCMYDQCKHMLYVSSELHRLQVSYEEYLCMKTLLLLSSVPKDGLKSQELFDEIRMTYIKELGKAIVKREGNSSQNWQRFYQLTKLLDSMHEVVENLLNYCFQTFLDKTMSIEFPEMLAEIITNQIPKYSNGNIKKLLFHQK

[15] = molecular target: Beta-3 adrenergic receptor (Homo sapiens) (UniProt P13945); settings: Compound concentration 10.0 uM
Sequence of Beta-3 adrenergic receptor (Homo sapiens) (P13945 whole entry, looked up): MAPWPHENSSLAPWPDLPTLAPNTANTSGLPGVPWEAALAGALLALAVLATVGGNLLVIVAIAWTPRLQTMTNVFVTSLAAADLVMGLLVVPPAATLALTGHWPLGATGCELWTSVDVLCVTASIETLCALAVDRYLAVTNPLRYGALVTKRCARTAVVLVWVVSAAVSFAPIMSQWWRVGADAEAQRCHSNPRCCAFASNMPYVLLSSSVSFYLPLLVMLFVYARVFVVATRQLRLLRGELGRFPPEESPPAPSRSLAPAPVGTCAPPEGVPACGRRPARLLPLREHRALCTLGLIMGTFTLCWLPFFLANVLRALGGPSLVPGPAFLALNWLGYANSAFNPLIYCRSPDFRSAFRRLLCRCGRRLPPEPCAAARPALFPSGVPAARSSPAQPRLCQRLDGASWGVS

Rattus norvegicus [16] = species: Rattus norvegicus; experiment: Testosterone Eurofins-Panlabs radioligand binding assay; design: ligand concentration 1.5 nM; settings: Compound concentration 10.0 uM
[17] = molecular target: Neuropeptide Y receptor type 1 (Homo sapiens) (UniProt P25929); experiment: Inhibition of Neuropeptide Y Y1 at 10 µM in the Eurofins-Panlabs radioligand binding assay (Eurofins_assay_257010); settings: Compound concentration 10.0 uM
Sequence of Neuropeptide Y receptor type 1 (Homo sapiens) (P25929 whole entry): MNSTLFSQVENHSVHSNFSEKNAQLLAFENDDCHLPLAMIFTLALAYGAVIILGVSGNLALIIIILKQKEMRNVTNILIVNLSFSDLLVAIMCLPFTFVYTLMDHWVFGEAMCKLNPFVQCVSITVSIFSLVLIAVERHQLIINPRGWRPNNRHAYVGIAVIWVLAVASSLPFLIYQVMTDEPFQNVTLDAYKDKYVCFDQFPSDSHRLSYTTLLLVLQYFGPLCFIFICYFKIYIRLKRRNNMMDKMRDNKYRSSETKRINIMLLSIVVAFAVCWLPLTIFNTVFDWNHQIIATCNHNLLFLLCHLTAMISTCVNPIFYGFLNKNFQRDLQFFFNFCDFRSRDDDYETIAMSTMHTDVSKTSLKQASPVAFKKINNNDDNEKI

[18] = molecular target: Prostaglandin E2 receptor EP4 subtype (Homo sapiens) (UniProt P35408); experiment: Prostanoid EP4 Eurofins-Panlabs radioligand binding assay; design: ligand concentration 0.5 nM; settings: Compound concentration 10.0 uM
[19] = molecular target: Nociceptin receptor (Homo sapiens) (UniProt P41146); experiment: Orphanin ORL1 Eurofins-Panlabs radioligand binding assay; settings: Compound concentration 10.0 uM
[20] = molecular target: T2, Muscarinic acetylcholine receptor M5 (Homo sapiens) (UniProt P08912); experiment: Inhibition of Muscarinic M5 at 10 µM in the Eurofins-Panlabs radioligand binding assay (Eurofins_assay_253010); design: ligand concentration 0.8 nM; settings: Compound concentration 10.0 uM
T2 sequence (whole entry): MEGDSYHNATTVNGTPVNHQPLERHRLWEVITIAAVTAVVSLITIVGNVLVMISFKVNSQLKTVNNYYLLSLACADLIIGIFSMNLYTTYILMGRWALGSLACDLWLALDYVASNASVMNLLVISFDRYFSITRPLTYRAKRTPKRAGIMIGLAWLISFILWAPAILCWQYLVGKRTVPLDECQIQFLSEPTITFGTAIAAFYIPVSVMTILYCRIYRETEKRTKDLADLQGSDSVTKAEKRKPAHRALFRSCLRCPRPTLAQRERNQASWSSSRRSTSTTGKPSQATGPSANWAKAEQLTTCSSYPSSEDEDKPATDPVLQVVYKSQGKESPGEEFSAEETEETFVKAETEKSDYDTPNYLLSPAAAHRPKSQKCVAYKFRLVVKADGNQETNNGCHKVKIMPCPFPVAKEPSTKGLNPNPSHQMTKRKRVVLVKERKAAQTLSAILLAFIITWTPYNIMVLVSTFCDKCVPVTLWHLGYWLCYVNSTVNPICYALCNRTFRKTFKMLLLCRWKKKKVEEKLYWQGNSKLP

[21] = molecular target: Sodium-dependent serotonin transporter (Homo sapiens) (UniProt P31645); settings: Compound concentration 10.0 uM
Sequence of Sodium-dependent serotonin transporter (Homo sapiens) (P31645 whole entry, looked up): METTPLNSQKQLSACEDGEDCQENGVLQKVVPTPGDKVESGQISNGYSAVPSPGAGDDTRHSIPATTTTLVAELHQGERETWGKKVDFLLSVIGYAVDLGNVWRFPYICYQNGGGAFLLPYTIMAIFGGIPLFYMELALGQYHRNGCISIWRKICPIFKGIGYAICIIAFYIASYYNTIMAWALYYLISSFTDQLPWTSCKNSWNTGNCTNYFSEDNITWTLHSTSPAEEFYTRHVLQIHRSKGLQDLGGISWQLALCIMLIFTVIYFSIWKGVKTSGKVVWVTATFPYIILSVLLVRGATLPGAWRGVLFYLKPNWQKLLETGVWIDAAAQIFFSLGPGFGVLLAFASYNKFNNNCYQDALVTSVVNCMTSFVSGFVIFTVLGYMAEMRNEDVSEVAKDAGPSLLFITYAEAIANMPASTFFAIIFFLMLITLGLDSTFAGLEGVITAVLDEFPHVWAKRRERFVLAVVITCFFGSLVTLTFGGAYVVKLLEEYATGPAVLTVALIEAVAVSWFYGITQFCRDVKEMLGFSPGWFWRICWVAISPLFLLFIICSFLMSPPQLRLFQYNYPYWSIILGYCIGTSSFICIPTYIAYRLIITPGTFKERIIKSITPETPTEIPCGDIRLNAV

[22] = molecular target: T3, 5-hydroxytryptamine receptor 2C (Homo sapiens) (UniProt P28335); settings: Compound concentration 10.0 uM
T3 sequence (whole entry): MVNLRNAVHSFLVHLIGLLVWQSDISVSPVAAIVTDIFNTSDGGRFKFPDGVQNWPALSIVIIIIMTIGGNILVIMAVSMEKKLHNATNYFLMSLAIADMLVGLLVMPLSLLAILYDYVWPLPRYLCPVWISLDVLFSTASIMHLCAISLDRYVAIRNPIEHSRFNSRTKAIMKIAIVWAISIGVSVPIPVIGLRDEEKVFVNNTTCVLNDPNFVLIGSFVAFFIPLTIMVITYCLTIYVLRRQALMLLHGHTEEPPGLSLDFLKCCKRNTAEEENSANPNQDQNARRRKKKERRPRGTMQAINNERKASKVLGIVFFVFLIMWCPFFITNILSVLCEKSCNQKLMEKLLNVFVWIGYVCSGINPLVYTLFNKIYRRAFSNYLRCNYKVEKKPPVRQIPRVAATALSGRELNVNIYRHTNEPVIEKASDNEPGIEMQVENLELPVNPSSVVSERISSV

Homo sapiens [23] = species: Homo sapiens; experiment: Cholecystokinin CCK2 (CCKB) Eurofins-Panlabs radioligand binding assay; design: ligand concentration 0.072 nM, non-specific ligand with concentration 1 µM Sincalide, incubation time 3 h, incubation temperature 25 °C; settings: Compound concentration 10.0 uM
Homo sapiens [24] = species: Homo sapiens; experiment: Inhibition of Nicotinic Acetylcholine at compound concentration of 10.0 uM in the Eurofins-Panlabs radioligand binding assay (Eurofins_assay_258590); format: protein-complex assay; settings: Compound concentration 10.0 uM
Rattus norvegicus [25] = species: Rattus norvegicus; experiment: Serotonin (5-Hydroxytryptamine) 5-HT1, Non-Selective Eurofins-Panlabs radioligand binding assay; format: protein assay; settings: Compound concentration 10.0 uM
[26] = molecular target: Muscarinic acetylcholine receptor M2 (Homo sapiens) (UniProt P08172); settings: Compound concentration 10.0 uM
[27] = molecular target: Galanin receptor type 1 (Homo sapiens) (UniProt P47211); experiment: Galanin GAL1 Eurofins-Panlabs radioligand binding assay; settings: Compound concentration 10.0 uM
Sequence of Galanin receptor type 1 (Homo sapiens) (P47211 whole entry): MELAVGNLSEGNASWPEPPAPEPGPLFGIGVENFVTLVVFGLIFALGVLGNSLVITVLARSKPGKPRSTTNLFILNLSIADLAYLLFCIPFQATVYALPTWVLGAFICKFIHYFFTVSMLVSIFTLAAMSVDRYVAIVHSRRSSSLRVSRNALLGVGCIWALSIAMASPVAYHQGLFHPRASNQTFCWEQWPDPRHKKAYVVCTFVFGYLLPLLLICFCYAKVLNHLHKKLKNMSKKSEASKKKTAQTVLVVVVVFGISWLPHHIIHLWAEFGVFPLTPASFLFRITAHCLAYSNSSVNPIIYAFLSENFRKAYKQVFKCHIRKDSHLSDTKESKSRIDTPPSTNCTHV

[28] = molecular target: Estrogen receptor (Homo sapiens) (UniProt P03372); settings: Compound concentration 10.0 uM

Sequence of Tyrosine-protein kinase Blk (Homo sapiens) (P51451 2-505 limits assumed): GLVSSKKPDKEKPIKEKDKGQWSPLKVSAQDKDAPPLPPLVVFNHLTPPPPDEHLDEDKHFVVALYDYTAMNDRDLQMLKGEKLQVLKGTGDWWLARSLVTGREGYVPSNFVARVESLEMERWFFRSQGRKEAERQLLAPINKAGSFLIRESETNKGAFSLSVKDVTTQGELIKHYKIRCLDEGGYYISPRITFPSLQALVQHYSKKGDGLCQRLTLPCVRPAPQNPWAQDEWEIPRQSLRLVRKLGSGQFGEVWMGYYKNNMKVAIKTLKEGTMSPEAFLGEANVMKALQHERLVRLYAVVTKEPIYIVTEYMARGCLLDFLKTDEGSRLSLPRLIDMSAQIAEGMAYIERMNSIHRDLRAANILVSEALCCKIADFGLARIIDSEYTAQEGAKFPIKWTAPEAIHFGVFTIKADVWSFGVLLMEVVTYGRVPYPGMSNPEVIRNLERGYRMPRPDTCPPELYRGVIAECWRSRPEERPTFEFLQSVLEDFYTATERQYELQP

N#CC1(c2ccccn2)CCN(Cc2cc(C(=O)N3CCCC3)c(=O)n3ccccc23)CC1
inactive: inhibition [1] -5.66% | residual activity [2] 73%

N#CC1(c2ccccn2)CCN(Cc2cc(C(=O)O)c(=O)n3ccccc23)CC1 [MSD-M1PAM]
inactive: inhibition (Homo sapiens [3]) 0% | inhibition [4] -1% | inhibition (Rattus norvegicus [5]) 17% | inhibition [6] -2% | inhibition [7] 12% | inhibition [8] -5% | inhibition (Rattus norvegicus [9]) -7% | inhibition [10] 6% | inhibition [11] -8% | inhibition [12] -6% | inhibition [13] 2% | inhibition [14] 4% | inhibition [15] -5% | inhibition (Rattus norvegicus [16]) -3% | inhibition [17] -1% | inhibition [18] -4% | inhibition [19] 14% | inhibition [20] 11% | inhibition [21] 19% | inhibition [22] -8% | inhibition (Homo sapiens [23]) -3% | inhibition (Homo sapiens [24]) -2% | inhibition (Rattus norvegicus [25]) 5% | inhibition [26] -8.07% | inhibition [27] 2% | inhibition [28] -1%
